The nature of data set [1]: Optical properties: relative fluorescence quantum yield with reference to Rhodamine B. The settings on record: for fluorescence quantum yield (Φfl): relative to Rhodamine B. The class given is physicochemical. The method, then: The optical properties of the compound synthesized in the above Synthesis Examples were evaluated. The results are illustrated in FIG. 4.
(a to c) of FIG. 4 illustrate chemical structures of tetramethylrhodamine (TMR) (a), 4-Cl TMR (b) and 4,5-diCl TMR (c), the fluorescence quantum yields (Φf1) in MeOH containing 0.1% TFA, absorption maximum (λabs) and emission maximum (λem). Φf1 is a relative fluorescence quantum yield determined with reference to Rhodamine B (Φf1=0.65) of EtOH.
(d to f) of FIG. 4 illustrates absorption spectra and emission spectra of 1 μM TMR (d), 4-Cl TMR (e) and 4,5-diCl TMR (f) in MeOH containing 0.1% TFA and 0.1% DMSO.
(a to c) of FIG. 6 illustrate chemical structures of 2-Cl TMR (a), 2-Me TMR (b) and 2-F TMR (c), the fluorescence quantum yields (Oni) in MeOH containing 0.1% TFA, absorption maximum (λabs) and emission maximum (λem). Φf1 is a relative fluorescence quantum yield determined with reference to Rhodamine B (Φf1=0.65) of EtOH.
(d to f) of FIG. 6 illustrates the absorption spectra and the emission spectra of 1 μM 2-Cl TMR (a), 2-Me TMR (b) and 2-F TMR (c) in MeOH containing 0.1% TFA and 0.1% DMSO.
(a) of FIG. 7 illustrates Φf1, λabs and λem of 2-Cl triMe rhodamine in MeOH containing 0.1% TFA. (b) of FIG. 7 illustrates the absorption spectrum and the emission spectrum of 1 μM 2-Cl triMe rhodamine in MeOH containing 0.1% TFA.

The nature of data set [2]: Solvent viscosity dependence of the fluorescence quantum yield. The class given is physicochemical. As for the experimental part: Next, in order to examine whether the non-fluorescence of the newly developed non-fluorescent rhodamine was due to the production of the TICT state, solvent viscosity dependence of the fluorescence quantum yield was examined. Specifically, the absorption, fluorescence spectrum and fluorescence quantum yield were measured in three types of solvents including MeOH (εr=32.6, η=0.61 cP), ethylene glycol (εr=38.7, η=19.9 cP) and glycerol (εr=42.5, η=1412 cP). […] It was expected that if the formation of the TICT state was promoted by the steric hindrance due to the introduction of the substituent, while quenching was performed by the formation of the TICT state in MeOH, in a highly viscous solvent such as glycerol, a rate of intramolecular twist became slow, and the transition to the TICT state was suppressed, so that the fluorescence quantum yield would increase.
(a) of FIG. 5 is Φf1 of 4-Cl TMR in glycerol, ethylene glycol and MeOH. Φf1 is a relative fluorescence quantum yield determined with reference to Rhodamine B (Φf1=0.65) of EtOH. (b and c) of FIG. 5 illustrate the absorption spectrum (b) and the emission spectrum (c) of 1 μM 4-Cl TMR in glycerol, ethylene glycol and MeOH.

For data set [3], the target named is T1, CYP1A2 (Homo sapiens, UniProt P05177).
T1 sequence (P05177 1-516): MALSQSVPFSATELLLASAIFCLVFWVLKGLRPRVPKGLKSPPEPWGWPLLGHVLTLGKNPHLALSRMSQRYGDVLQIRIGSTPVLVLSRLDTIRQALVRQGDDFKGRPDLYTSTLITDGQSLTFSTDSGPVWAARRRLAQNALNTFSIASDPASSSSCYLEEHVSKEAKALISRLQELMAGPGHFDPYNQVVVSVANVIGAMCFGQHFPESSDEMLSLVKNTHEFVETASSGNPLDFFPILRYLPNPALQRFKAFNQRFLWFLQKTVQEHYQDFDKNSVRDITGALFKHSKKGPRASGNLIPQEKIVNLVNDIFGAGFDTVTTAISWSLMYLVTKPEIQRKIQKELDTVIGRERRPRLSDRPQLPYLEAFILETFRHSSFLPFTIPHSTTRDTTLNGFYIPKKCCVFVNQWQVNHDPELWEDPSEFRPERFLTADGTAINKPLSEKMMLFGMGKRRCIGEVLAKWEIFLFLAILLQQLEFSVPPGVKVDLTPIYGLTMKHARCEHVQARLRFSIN
The conditions noted are these: literature (Stresser et al. 2002); cited from earlier work.

Data set [4] has as its system CYP3A. The conditions noted are these: literature statement; cited from earlier work.
Data set [5] deals with CYP3A4 (Homo sapiens, UniProt P08684). Kind of data set: Absorption/fluorescence spectrum changes on reaction with CYP3A4. The class given is biochemical. The conditions noted are these: 1 μM compound, CYP3A4 10 nM. From the text:
Next, as a representative of the compounds illustrated in FIG. 15, absorption/fluorescence spectrum changes when Compound 29 (illustrated below) was reacted with CYP3A4 were shown (FIG. 16).

Data set [6] deals with CYP3A activity of HepaRG. Kind of data set: Fluorescence imaging of CYP3A activity in living HepaRG cells. The conditions noted are these: 1 μM compound, 37° C. 30 minutes; control and rifampicin groups versus ketoconazole group. The class given is cell-based. The method, then: HepaRG (registered trademark) frozen vial 8M (HPR116-8M) purchased from KAC Co., Ltd. was thawed and inoculated according to the manufacturer's protocol, and cultured for 6 days in an 8-well chamber (Matsunami: SCC-038 collagen coat). Then, it was examined whether Compound 29 could detect the CYP3A activity of HepaRG.
Imaging was performed on three types of control group, inhibitor-added group, and derivative-added group.
Ketoconazole was used as an inhibitor. Rifampicin was used as an inducer of the CYP3A activity. […]
Here, FIG. 18 illustrates a fluorescence image (control) of HepaRG obtained when HepaRG to which 0.1% DMSO was added for 3 days was pretreated with 0.1% DMSO for 30 minutes, then 1 μM of Compound 29 was added, and the mixture was incubated at 37° C. for 30 minutes, a fluorescence image (+ inhibitor) of HepaRG obtained when 0.1% DMSO was added for 3 days and pretreated with 1 μM ketoconazole for 30 minutes before imaging, then Compound 29 was added, and the mixture was incubated at 37° C. for 30 minutes, and a fluorescence image obtained when 20 μM rifampicin were added for 3 days and was pretreated with 0.1% DMSO for 30 minutes, then Compound 29 was added, and the mixture was further incubated at 37° C. for 30 minutes. […]

Data set [7] deals with CYP3A in human liver microsomes. Kind of data set: Time-dependent fluorescence change with human liver microsomes and NADPH producing system. The method, then: The human liver microsomes and the NADPH producing system were pre-incubated with 0.1% DMSO or 10 μM ketoconazole for 30 minutes before addition of Compound 29, and the measurement was started immediately after addition of Compound 29.
(In general: Liver microsomes are a subcellular fraction often used to study metabolism.)

For data set [8] the following is noted: in EtOH; cited from earlier work.

Sequence of CYP3A4 (P08684 whole entry): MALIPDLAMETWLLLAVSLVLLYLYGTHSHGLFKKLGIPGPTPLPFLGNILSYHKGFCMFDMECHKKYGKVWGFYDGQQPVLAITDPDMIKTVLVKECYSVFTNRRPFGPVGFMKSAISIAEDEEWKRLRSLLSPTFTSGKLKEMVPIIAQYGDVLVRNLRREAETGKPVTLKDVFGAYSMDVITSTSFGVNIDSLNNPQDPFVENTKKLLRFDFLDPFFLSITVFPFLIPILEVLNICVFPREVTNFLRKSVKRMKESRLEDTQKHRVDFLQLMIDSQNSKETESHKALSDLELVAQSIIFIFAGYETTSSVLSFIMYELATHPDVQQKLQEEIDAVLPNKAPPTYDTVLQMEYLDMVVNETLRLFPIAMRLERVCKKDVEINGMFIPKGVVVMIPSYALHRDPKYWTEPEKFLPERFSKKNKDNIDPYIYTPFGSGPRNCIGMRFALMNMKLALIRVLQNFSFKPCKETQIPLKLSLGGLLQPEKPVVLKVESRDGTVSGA

`CN(C)c1ccc2c(-c3ccccc3C(=O)O)c3cc(Cl)c(=[N+](C)C)cc-3oc2c1` [2-Cl TMR, 2-ClTMR]: the “fluorescence behaviour (in words)” value in data set [1] (MeOH containing 0.1% TFA) was “exhibited non-fluorescence”.

In the case of `C/N=c1\cc2oc3cc(N(C)C)ccc3c(-c3ccccc3C(=O)O)c-2cc1Cl` [2-Cl triMe rhodamine], the fluorescence quantum yield in data set [1] (MeOH containing 0.1% TFA) stood at 15%. Same read-out and setting: the same measure for `CN(C)c1ccc2c(-c3ccccc3C(=O)O)c3cc(F)c(=[N+](C)C)cc-3oc2c1` [2-F TMR, 2-FTMR]: “about 10%”; for `Cc1cc2c(-c3ccccc3C(=O)O)c3ccc(N(C)C)cc3oc-2cc1=[N+](C)C` [2-Me TMR, 2-MeTMR]: “about 1%”. For the compound `Cc1ccccc1-c1c2ccc(=[N+](C)C)c(Cl)c-2oc2c(Cl)c(N(C)C)ccc12` [4,5-diCl TMR, 4,5-diClTMR], the “fluorescence quantum yield (Φfl)” value in data set [1] (MeOH containing 0.1% TFA) amounted to 0.001. In data set [1] (Si-rhodamines, Example 5), `COc1cccc(OC)c1C1=C2C=CC(=[N+](C)C)C(Cl)=C2[Si](C)(C)c2c1ccc(N(C)C)c2Cl` [4,5-diCl TMSiR] registered a fluorescence quantum yield of at most 0.1%.

Turning to `Cc1ccccc1-c1c2ccc(=[N+](C)C)c(Cl)c-2oc2cc(N(C)C)ccc12` [4-Cl TMR, 4-ClTMR], the “fluorescence quantum yield (Φfl)” value in data set [2] (MeOH (η=0.61 cP)) is 0.003; in data set [2] (ethylene glycol (η=19.9 cP)), 0.01; in data set [2] (glycerol (η=1412 cP)), 0.09; in data set [1] (MeOH containing 0.1% TFA), 0.003. Take `Cc1ccccc1C1=C2C=CC(=[N+](C)C)C(Cl)=C2[Si](C)(C)c2cc(N(C)C)ccc21` [4-Cl TMSiR]: in data set [1] (Si-rhodamines, Example 5), the fluorescence quantum yield is 1%. On to `O=c1cc(C(F)(F)F)c2ccc(OCc3ccccc3)cc2o1` [BFC, 7-benzyloxy-4-trifluoromethylcoumarin], for which the “metabolism by CYP1A2” value in data set [3] was “metabolized to some extent by CYP1A2”. In addition, the “metabolism by CYP3A” value in data set [4] is on record as “metabolized by CYP3A”.

Regarding `c1ccc(COc2ccc3cccnc3c2)cc1` [BQ, 7-benzyloxyquinoline], the “metabolism by CYP1A2” value in data set [3] was “metabolized to some extent by CYP1A2”. For the same compound, the “metabolism by CYP3A” value in data set [4] was “metabolized by CYP3A”. In the case of `CCCCCOCC/[N+](C)=c1/cc2oc3cc(N(C)C)ccc3c(-c3ccccc3C(=O)O)c-2cc1C` [Compound 29], the “change of absorption on reaction with CYP3A4” value in data set [5] (pH 7.4) is given as “Shortening the absorption wavelength”. Moreover, the “change of fluorescence intensity on reaction with CYP3A4” value in data set [5] (pH 7.4, excitation 520 nm) is recorded as “significant increase in fluorescence intensity”. Besides, in data set [6], the “detection of CYP3A activity in living cells by fluorescence” value is “could detect the CYP3A activity even in living cells”. Moreover, the “fluorescence change on reaction with human liver microsomes” value in data set [7] (pH 7.4) is reported as “showed the increase in fluorescence”. Turning to `CCN(CC)c1ccc2c(-c3ccccc3C(=O)O)c3ccc(=[N+](CC)CC)cc-3oc2c1.[Cl-]` [Rhodamine B], in data set [8], the “fluorescence quantum yield (Φfl) of the reference” value is reported as 0.65. For `CC(=O)N1CCN(c2ccc(OCC3COC(Cn4ccnc4)(c4ccc(Cl)cc4Cl)O3)cc2)CC1` (stereo not shown) [ketoconazole, reference compound], the “effect of inhibitor on the fluorescence increase of Compound 29 in human liver microsomes” value in data set [7] (10 μM ketoconazole pre-incubated 30 minutes) is “suppressed”. `Cc1ccccc1-c1c2ccc(=[N+](C)C)cc-2oc2cc(N(C)C)ccc12` [reference compound]: the “fluorescence quantum yield (Φfl)” value in data set [1] (MeOH containing 0.1% TFA) amounted to 0.399.
